The values below come from patent US8637526B2, “Pyrazolopyrimidine JAK inhibitor compounds and methods” (Genentech, Inc., priority 2008, dated 2014).

Assay [1] deals with Set-2 cells, which express the JAK2V617F mutant protein. Nature of the assay: STAT5 phosphorylation in Set-2 cells (JAK2-dependent signaling, MSD). In kind it is cell-based. The conditions noted are these: Homo sapiens, read-out: pSTAT5 SET2 EC50. On the procedure:
The activities of compounds were determined in cell-based assays that are designed to measure JAK2-dependent signaling or proliferation. Compounds were serially diluted in DMSO and incubated with Set-2 cells (German Collection of Microorganisms and Cell Cultures (DSMZ); Braunschweig, Germany), which express the JAK2V617F mutant protein, in 96-well microtiter plates for 1 hr at 37° C. in RPMI medium at a final cell density of 100,000 cells per well and a final DMSO concentration of 0.57%. Compound-mediated effects on STATS phosphorylation were then measured in the lysates of incubated cells using the Meso Scale Discovery (MSD) technology (Gaithersburg, Md.) according to the manufacturer's protocol and EC50 values were determined. Alternatively, serially diluted compounds were added to 384-well microtiter plates in RPMI medium with 10% fetal bovine serum (Invitrogen Corp.; Carlsbad, Calif.) at a final cell density of 2500 cells per well and a final DMSO concentration of 0.3% and incubated at 37° C. for 72 hours. Cell viability was then determined using the CellTiter-Glo® Luminescent Cell Viability Assay according to the manufacturer's protocol (Promega; Madison, Wis.) and EC50 values were determined.

The test system of assay [2] is NK92 cells. Put plainly: IL-12-stimulated STAT4 phosphorylation in NK92 cells (TYK2-dependent signaling, MSD). Particulars: read-out: IL12-pSTAT4 NK92 EC50. In kind it is cell-based. On the procedure: The activities of compounds were determined in cell-based assays that are designed to measure TYK2-dependent signaling. Compounds were serially diluted in DMSO and incubated with NK92 cells (American Type Culture Collection (ATCC); Manassas, Va.) in 96-well microtiter plates in RPMI medium at a final cell density of 100,000 cells per well and a final DMSO concentration of 0.57%. Human recombinant IL-12 (R&D systems; Minneapolis, Minn.) was then added at a final concentration of 10 ng/mL to the microtiter plates containing the NK92 cells and compound and the plates were incubated for 1 hr at 37° C. Compound-mediated effects on STAT4 phosphorylation were then measured in the lysates of incubated cells using the Meso Scale Discovery (MSD) technology (Gaithersburg, Md.) according to the manufacturer's protocol and EC50 values were determined

In assay [3] the target is human JAK3 kinase domain (Homo sapiens (Human), UniProt P52333). Put plainly: biochemical. In kind it is biochemical. The procedure:
The activity of the JAK1, JAK2, JAK3 or TYK2 kinase domains was measured in vitro by monitoring phosphorylation of JAK3 derived peptides using the Caliper LabChip technology.
The activity of the isolated JAK3 kinase domain was measured by monitoring phosphorylation of a peptide derived from JAK3 ([…] fluorescently labeled on the N-terminus with 5-carboxyfluorescein using the Caliper LabChip technology (Caliper Life Sciences, Hopkinton, Mass.). […] Reactions were incubated at 22° C. in 384-well polypropylene microtiter plates for 30 minutes and then stopped by addition of 25 uL of an EDTA containing solution (100 mM Hepes pH 7.2, 0.015% Brij-35, 150 mM EDTA), resulting in a final EDTA concentration of 50 mM. After termination of the kinase reaction, the proportion of phosphorylated product was determined as a fraction of total peptide substrate using the Caliper LabChip 3000 according to the manufacturer's specifications.

Assay [4] deals with TF-1 cells. Nature of the assay: IL-6-stimulated STAT3 phosphorylation in TF-1 cells (JAK1-dependent signaling, MSD). Format: cell-based. The conditions noted are these: Homo sapiens, read-out: IL6-pSTAT3 TF1 EC50. On the procedure:
The activities of compounds were determined in cell-based assays that are designed to measure JAK1 or JAK2-dependent signaling. Compounds were serially diluted in DMSO and incubated with TF-1 cells (American Type Culture Collection (ATCC); Manassas, Va.) in 384-well microtiter plates in OptiMEM medium without phenol red, 1% Charcoal/Dextran stripped FBS, 0.1 mM NEAA, 1 mM sodium pyruvate (Invitrogen Corp.; Carlsbad, Calif.) at a final cell density of 100,000 cells per well and a final DMSO concentration of 0.2%. Human recombinant IL-6 (R&D systems; Minneapolis, Minn.) or EPO (Invitrogen Corp.; Carlsbad, Calif.) was then added at a final concentration of 30 ng/mL or 10 Units/mL, respectively, to the microtiter plates containing the TF-1 cells and compound and the plates were incubated for 30 min at 37° C. Compound-mediated effects on STAT3 or STATS phosphorylation were then measured in the lysates of cells incubated in the presence of IL-6 or EPO, respectively, using the Meso Scale Discovery (MSD) technology (Gaithersburg, Md.) according to the manufacturer's protocol and EC50 values were determined.

[5] abbreviates: NK92 cells, IL-12 10 ng/mL, 1 hr.
The mark [6] stands for this setting: enzymatic activity, 5 uM ATP, read-out: JAK3 Ki.
Where [7] appears, read: 0.5 h, TF-1 cells, IL-6 30 ng/mL, 30 min.

As usually defined, the EC50 is the concentration giving half of the maximal effect. By Ki is commonly meant a measure of affinity in units of concentration, obtained from inhibition or displacement.

Read-outs that look alike come from different tables or passages of the source.

Sequence of human JAK3 kinase domain (P52333 783-1124): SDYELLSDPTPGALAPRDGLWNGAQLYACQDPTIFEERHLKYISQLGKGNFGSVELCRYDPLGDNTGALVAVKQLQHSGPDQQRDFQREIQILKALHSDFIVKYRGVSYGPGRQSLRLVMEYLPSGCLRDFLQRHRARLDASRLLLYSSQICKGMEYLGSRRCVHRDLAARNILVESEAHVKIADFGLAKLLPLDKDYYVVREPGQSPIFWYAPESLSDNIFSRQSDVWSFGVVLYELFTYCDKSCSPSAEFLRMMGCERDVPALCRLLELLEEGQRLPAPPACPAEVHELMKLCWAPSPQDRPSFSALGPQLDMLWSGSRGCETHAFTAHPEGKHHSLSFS

For `Cc1cc(NC(=O)c2cnn3ccc(N)nc23)n(-c2cc(Cl)ccc2C)n1` [Example 226], the EC50 in assay [1] (Set-2 cells, 1 hr incubation) worked out at 17 nM; in assay [2] (setting [5]) it was 336 nM; in assay [4] (setting [7]), 170 nM. In addition, the inhibition constant (Ki) in assay [3] (setting [6]) turned out to be 15.7 nM.

For `Cc1nc(-c2ccccc2C)c(NC(=O)c2cnn3ccc(N)nc23)s1` [Example 231, 5-amino-pyrazolo[1,5-a]pyrimidine-3-carboxylic acid (2-methyl-4-o-tolyl-thiazol-5-yl)-amide], the EC50 in assay [1] (SET-2, 1 h) was 80.2 nM; in assay [2] (NK92, 1 h) it was 3300 nM; in assay [4] (TF-1, 0.5 h), 371 nM. The Ki in assay [3] (setting [6]) amounted to 12.4 nM.

For `Cc1cc(NC(=O)c2cnn3ccc(Nc4cccc(C(F)(F)F)c4)nc23)on1` [Example 240, 5-(3-Trifluoromethyl-phenylamino)-pyrazolo-[1,5-a]pyrimidine-3-carboxylic acid (3-methyl-isoxazol-5-yl)-amide], the EC50 is 365 nM in assay [1] (Set-2 cells, 1 hr incubation); 579 nM in assay [2] (setting [5]); 1600 nM in assay [4] (setting [7]). In addition, the Ki in assay [3] (setting [6]) came to 95.1 nM.

For `Nc1ccn2ncc(C(=O)Nc3c[nH]nc3-c3cc(Cl)ccc3Cl)c2n1` [Example 248, 5-Amino-pyrazolo[1,5-a]-pyrimidine-3-carboxylic acid [3-(2,5-dichloro-phenyl)-1H-pyrazol-4-yl]-amide], the EC50 in assay [1] (Set-2 cells, 1 hr incubation) was determined as 18 nM; in assay [2] (setting [5]) it was 158 nM; in assay [4] (setting [7]), 165 nM. In addition, in assay [3] (setting [6]), the Ki was 1.7 nM.

For `Nc1ccn2ncc(C(=O)Nc3ccnn3-c3cc(Cl)ccc3Cl)c2n1` [Example 277, 5-Amino-pyrazolo[1,5-a]-pyrimidine-3-carboxylic acid [2-(2,5-dichloro-phenyl)-2H-pyrazol-3-yl]-amide], the EC50 is 43.4 nM in assay [1] (Set-2 cells, 1 hr incubation); 603 nM in assay [2] (setting [5]); 514 nM in assay [4] (setting [7]). For the same molecule, in assay [3] (setting [6]), the Ki was found to be 25.4 nM.

As for `O=C(NC1CCOCC1)c1cnn2ccc(NC3Cc4ccccc4C3)nc12` [Example 297, 5-(Indan-2-ylamino)-pyrazolo[1,5-a]pyrimidine-3-carboxylic acid (tetrahydro-pyran-4-yl)-amide], the EC50 in assay [1] (Set-2 cells, 1 hr incubation) worked out at 170 nM; in assay [2] (setting [5]) it was 1100 nM; in assay [4] (setting [7]), 1400 nM. For the same molecule, the Ki in assay [3] (setting [6]) came to 39.7 nM.

Regarding `O=C(N[C@H]1CC[C@H](O)CC1)c1cnn2ccc(NC3CCc4ccccc43)nc12` (some centres unmarked) [Example 299, 5-(Indan-1-ylamino)-pyrazolo[1,5-a]pyrimidine-3-carboxylic acid (4-hydroxy-cyclohexyl)-amide], the 50% effective concentration (EC50) is 256 nM in assay [1] (Set-2 cells, 1 hr incubation); 1770 nM in assay [2] (setting [5]); 1880 nM in assay [4] (setting [7]). In assay [3], this molecule yielded a Ki of 14.5 nM.

Take `Cc1cc(NC(=O)c2cnn3ccc(N)nc23)n(-c2ccccc2C)n1` [Example 343, 5-Amino-pyrazolo[1,5-a]-pyrimidine-3-carboxylic acid (5-methyl-2-o-tolyl-2H-pyrazol-3-yl)-amide]: the EC50 in assay [1] (Set-2 cells, 1 hr incubation) was 301 nM; in assay [2] (setting [5]) it was 5300 nM; in assay [4] (setting [7]), 380 nM. The Ki in assay [3] (setting [6]) is 28.6 nM.
